Measured values reported in US20040171086A1, “Selective modulation of TLR-mediated biological activity” (3M Innovative Properties Company, priority 2003, published 2004).

What was measured:
TLR7 = target: T1, TLR7 (Homo sapiens, UniProt Q9NYK1); test: IFN-α1-luciferase reporter assay in genetically modified Namalwa cells, TLR7; format: cell-based; design: expressed in transfected cells; host or cells: Namalwa (ATCC CRL-1432); conditions: 10 μM IRM, 18 hours
T1 sequence (Q9NYK1 27-1049): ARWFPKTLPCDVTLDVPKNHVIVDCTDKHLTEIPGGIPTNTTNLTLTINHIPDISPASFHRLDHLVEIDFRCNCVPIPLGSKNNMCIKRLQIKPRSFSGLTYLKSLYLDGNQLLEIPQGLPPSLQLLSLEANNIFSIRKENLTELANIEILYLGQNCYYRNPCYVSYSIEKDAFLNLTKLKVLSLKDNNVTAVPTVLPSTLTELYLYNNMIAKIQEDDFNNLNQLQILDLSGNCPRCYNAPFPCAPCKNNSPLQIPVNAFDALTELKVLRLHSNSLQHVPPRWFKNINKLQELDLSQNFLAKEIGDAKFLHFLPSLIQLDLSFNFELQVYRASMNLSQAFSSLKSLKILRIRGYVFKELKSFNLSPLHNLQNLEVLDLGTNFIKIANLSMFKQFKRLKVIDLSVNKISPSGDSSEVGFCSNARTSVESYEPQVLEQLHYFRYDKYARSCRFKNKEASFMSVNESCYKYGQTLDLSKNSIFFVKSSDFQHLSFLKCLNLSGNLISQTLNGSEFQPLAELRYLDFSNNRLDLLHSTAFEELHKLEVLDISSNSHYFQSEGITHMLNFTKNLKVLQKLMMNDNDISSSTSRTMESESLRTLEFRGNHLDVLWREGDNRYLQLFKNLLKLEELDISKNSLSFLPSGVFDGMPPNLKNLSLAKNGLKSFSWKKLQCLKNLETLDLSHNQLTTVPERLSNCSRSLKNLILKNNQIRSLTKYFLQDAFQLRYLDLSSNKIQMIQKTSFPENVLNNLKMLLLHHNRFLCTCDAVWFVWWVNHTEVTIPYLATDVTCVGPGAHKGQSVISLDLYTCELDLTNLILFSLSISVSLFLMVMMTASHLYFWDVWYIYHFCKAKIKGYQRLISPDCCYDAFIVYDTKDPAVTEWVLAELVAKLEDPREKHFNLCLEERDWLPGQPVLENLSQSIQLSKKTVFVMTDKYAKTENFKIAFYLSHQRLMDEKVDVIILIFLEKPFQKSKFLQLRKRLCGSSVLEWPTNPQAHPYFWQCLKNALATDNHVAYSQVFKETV
Description: (§1) Results are shown in Table 6 and are expressed as fold induction of IFN-α1 —induced luciferase signal, again with respect to a vehicle control.
(§2) The assay identified TLR6-selective compounds (i.e., compounds that modulate TLR6-mediated activity, but not TLR7-mediated activity), TLR7-selective compounds (compounds that modulate TLR7-mediated activity, but not TLR6-mediated activity), and compounds that modulate cellular activity through both TLR6 and TLR7.
(§3) Unless otherwise indicated, all incubations were performed at 37° C. with 5% CO2 at 98% humidity.
(§4) Culture medium was prepared from complete RPMI 1640 medium (BioSource International, Inc., Camarillo, Calif.). Fetal bovine serum (Atlas Biologicals, Inc., Ft. Collins, Colo.) was added to a final concentration of 7.5% (vol/vol); L-glutamine (BioSource International, Inc.) was added to 5 mM; and sodium pyruvate (BioSource International, Inc.) was added to 1 mM.
Namalwa cells were grown by incubation in culture medium overnight. Cells were harvested by centrifugation in a tabletop centrifuge (1200 RPM for 5 minutes), and then resuspended in phosphate buffered sucrose to a concentration of 1.3×10^7 cells/mL. […]
(§5) The electroporated cells were suspended in 10 mLs of culture medium and incubated overnight. Dead cells and debris were removed after 24 hours using a MACS Dead Cell Removal kit (Miltenyi Biotec, Auburn, Calif.). Cells were resuspended in 10 mL of culture medium and incubated for an additional 24 hours.
(§6) Transfected cells were selected by adding G418 (Promega Corp., Madison, Wis.) to a final concentration of 1 mg/mL and incubating the cells for seven days.
(§7) The selected transfected cells were counted and resuspended to a concentration of 1×10^6 cell per mL in culture medium. 100 μl aliquots of cells were placed in the wells of a white-walled, white-bottomed 96-well plate (Corning, Inc., Corning, N.Y.). 1.0 μL of an IRM compound from Table 1 (prepared at 1 mM in 100% DMSO) was added to some cell aliquots so that the final concentration of IRM compound was 10 μM. As a positive control, some cell aliquots were incubated with Sendai virus instead of IRM compound. As a negative control, some cell aliquots were incubated with DMSO without IRM compound. In all cases, the cells were incubated for 18 hours.
(§8) The plates were equilibrated to room temperature before one volume of reconstituted LucLight Plus (Packard Instruments, Meriden, Conn.) was added to each aliquot of cells. Each well of the plate was read on an LJL Analyst (LJL Biosystems, Inc., Sunnyvale, Calif.) set with a 5 minute dark adapt. Results are shown in Table 6 and are expressed as fold increase of the IFN-αl—induced luciferase signal compared to a DMSO control.

TLR6 = target: T2, TLR6 (Homo sapiens, UniProt Q9Y2C9); test: IFN-α1-luciferase reporter assay in genetically modified Namalwa cells, TLR6; format: cell-based; conditions: 10 μM IRM, 18 hours
T2 construct: expressed in transfected cells; host or cells: Namalwa (ATCC CRL-1432), pCI-TLR6 vector, G418 selected
T2 sequence (Q9Y2C9 32-796): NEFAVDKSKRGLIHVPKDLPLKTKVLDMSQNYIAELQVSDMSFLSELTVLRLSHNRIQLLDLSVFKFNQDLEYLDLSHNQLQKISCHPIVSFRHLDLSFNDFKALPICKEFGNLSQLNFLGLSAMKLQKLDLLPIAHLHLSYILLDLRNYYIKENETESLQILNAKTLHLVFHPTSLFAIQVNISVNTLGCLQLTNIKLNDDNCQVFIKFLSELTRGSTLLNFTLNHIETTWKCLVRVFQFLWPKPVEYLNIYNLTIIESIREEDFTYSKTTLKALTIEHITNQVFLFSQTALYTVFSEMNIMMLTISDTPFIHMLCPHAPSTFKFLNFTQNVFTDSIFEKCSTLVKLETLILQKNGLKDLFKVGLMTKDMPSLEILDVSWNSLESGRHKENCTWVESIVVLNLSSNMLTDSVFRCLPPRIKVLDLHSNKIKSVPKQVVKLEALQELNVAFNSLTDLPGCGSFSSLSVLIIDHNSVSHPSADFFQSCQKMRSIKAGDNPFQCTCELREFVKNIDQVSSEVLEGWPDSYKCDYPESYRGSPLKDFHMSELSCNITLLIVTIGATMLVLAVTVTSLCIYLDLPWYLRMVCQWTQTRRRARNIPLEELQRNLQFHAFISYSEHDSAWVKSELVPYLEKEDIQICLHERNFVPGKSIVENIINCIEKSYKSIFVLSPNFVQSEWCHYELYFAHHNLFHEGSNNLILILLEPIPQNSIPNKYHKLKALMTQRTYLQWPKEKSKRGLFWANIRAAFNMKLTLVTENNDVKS
Description: as §1, §2, §3, §4
Namalwa cells were grown by incubation in culture medium overnight. Cells were harvested by centrifugation in a tabletop centrifuge (1200 RPM for 5 minutes), and then resuspended in phosphate buffered sucrose to a concentration of 1.3×10^7 cells/mL.
For each transfection, a 750 μL aliquot of the cell suspension was placed in an electroporation cuvette with 4 mm gaps. 10 μg of the pIFN-α1-luc vector and 10 μg of the pCI-TLR6 vector were added to the electroporation cuvette. The cell and vector mixtures were incubated at room temperature for 5 minutes. The cells were electroporated using a BioRad Gene Pulser (BioRad Laboratories, Hercules, Calif.) set to at 500 μF capacitance and […], then incubated at room temperature for 5 minutes.
as §5, §6, §7, §8

Row | Compound | TLR7: fold increase of the IFN-α1-induced luciferase signal compared to a DMSO control (TLR7) [fold increase] | TLR6: fold increase of the IFN-α1-induced luciferase signal compared to a DMSO control (TLR6) [fold increase]
1 | Nc1nc2ccccc2c2c1ncn2CCOCCCc1cccnc1 [IRM35, 1-{2-[3-(3-pyridyl)propoxy]ethyl}-1H-imidazo[4,5-c]quinolin-4-amine] | 2.33 | 6.72
2 | CCCCc1nc2c(N)nc3cccnc3c2n1CCNC(=O)c1ccc(Br)s1 [IRM42, N^2-[2-(4-amino-2-butyl-1H-imidazo[4,5-c][1,5]naphthyridin-1-yl)ethyl]-5-bromo-2-thiophenecarboxamide] | 3.54 | 0.98
3 | Nc1nc2ccccc2c2c1ncn2CCCCCCCCNC(=O)c1ccccc1 [IRM43, N-[8-(4-amino-1H-imidazo[4,5-c]quinolin-1-yl)octyl]benzamide] | 2.17 | 1.07
4 | CCCCc1nc2c(N)nc3ccc(OCC(=O)N4CCOCC4)cc3c2n1C [IRM44, 2-[(4-amino-2-butyl-1-methyl-1H-imidazo[4,5-c]quinolin-8-yl)oxy]-1-morpholin-1-ylethanone] | 1.60 | 6.10
5 | CCC(COCCCc1ccccc1)n1cnc2c(N)nc3ccccc3c21 (stereo not shown) [IRM45, 1-{1-[(3-phenylpropoxy)methyl]propyl}-1H-imidazo[4,5-c]quinolin-4-amine] | 1.87 | 5.56
6 | Nc1nc2ccccc2c2c1ncn2CCCC(=O)c1ccccc1 [IRM46, 4-(4-amino-1H-imidazo[4,5-c]quinolin-1-yl)-1-phenylbutan-1-one] | 1.83 | 3.75
7 | Cc1nc2c(N)nc3ccccc3c2n1CCOCC#Cc1ccccc1 [IRM47, 2-methyl-1-{2-[(3-phenylprop-2-ynyl)oxy]ethyl}-1H-imidazo[4,5-c]quinolin-4-amine] | 1.91 | 9.42
8 | CCc1nc2c(N)nc3ccc(OCc4ccccc4)cc3c2n1CCCCNC(=O)c1ccccc1 [IRM48, N-{4-[4-amino-8-(benzyloxy)-2-ethyl-1H-imidazo[4,5-c]quinolin-1-yl]butyl}benzamide] | 1.62 | 4.56
9 | COCCc1nc2c(N)nc3ccccc3c2n1CCOCCNC(=O)N1CCOCC1 [IRM49, N-(2-{2-[4-amino-2-(2-methoxyethyl)-1H-imidazo[4,5-c]quinolin-1-yl]ethoxy}ethyl)morpholine-4-carboxamide] | 1.95 | 10.92
10 | CCc1nc2c(N)nc3ccccc3c2n1CCCCSC(C)C [IRM50] | 1.91 | 8.80
11 | COCCc1nc2c(N)nc3ccccc3c2n1CCOCCNC(=O)c1ccc(C(=O)NCCOCCn2c(CCOC)nc3c(N)nc4ccccc4c32)cc1 [IRM51, N,N′-bis(2-{2-[4-amino-2-(2-methoxyethyl)-1H-imidazo[4,5-c]quinolin-1-yl]ethoxy}ethyl)terephthalamide] | 1.74 | 3.67
